For five compounds, EC50, inhibition and half-life results are on record in patent US11560400B2, “Salts of diphosphate phosphoramidate of nucleosides as anticancer compounds” (NuCana plc, priority 2017, dated 2023).

Structures are written as SMILES. Structures can show the parent of a compound that is named as a salt. Where two headings read alike, the source gives them in different places. A value given as a limit tells only on which side of the number the result lay.

One series has as its system Mia-Pa-Ca-2. In words: CellTiterGlo cell viability assay, Mia-Pa-Ca-2. To be noted: Homo sapiens, MIA PaCa-2, Mia-Pa-Ca-2, 72 h; for EC50: absolute EC50, read-out: Ab EC50; for inhibition at 198 µM: percentage inhibition at the highest concentration tested, read-out: Top Inhibit. The series is classed as cell-based. On the procedure:
A subset of compounds of the invention were assayed for their cytotoxic activity in an array of different solid tumours and haematological malignancies using the following assay.
In vitro viability assay were performed to assess the effects of compounds on cell viability in selected cell lines over 72 h using the CellTiterGlo (CTG, Promega-G7573) assay. The tests were performed in duplicates with treatment of compounds at 9 points, 3.16 folds titration in 96 well plates over ˜72 h. The compound starting concentrations were 198 μM. Cell viability assay using CellTiterGlo in 96-well plate were performed. Compound treatment 72 h, standard growth conditions, duplicates. Compounds were dissolved to 40 mM with thawed […]. Compounds were serially diluted at 3.16 fold in thawed DMSO, and warmed to 37° C. before being dissolved in media (2 μL+200 μL). After compounds were dissolved in media, media containing compounds were warmed to 37° C. in incubator and then compounds in media were added to cell plates (50 μL+50 μL) in duplicates. The compounds' final concentrations were from 198 μM to 19.8 nM. All compound solubilities were checked and recorded again, then the plates were transferred to CO2 tissue culture incubator immediately and incubated for 3 days. DMSO final concentration is 0.5%. The parent nucleoside in each case was tested as a comparator, as was an exemplary ProTide. The drugs of the ProTide class that were tested were as follows:
The following cell lines were tested and are referred to in the Table 1 below:
In Tables 2, 3 and 4, ‘Ab EC50’ refers to the absolute EC50 and ‘Top inhibit’ refers to the percentage inhibition achieved at the highest concentration tested.
In general terms: Cellular ATP, detected with luciferase, serves as a proxy for viable cell number.

A further series relates to OVCAR 3. In words: CellTiterGlo cell viability assay, OVCAR 3. The class given is cell-based. The following applies: Homo sapiens; for inhibition at 198 µM: percentage inhibition at the highest concentration tested, read-out: Top Inhibit; for EC50: absolute EC50, numeric values, read-out: Ab EC50. An outline of the steps: (§1)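 Viability was measured by CellTiterGlo luminescence after 3 days of compound exposure, tested in duplicate at nine concentrations (3.16-fold steps, 198 μM top, 19.8 nM bottom, 0.5% DMSO final). Outputs were absolute EC50 and maximal percent inhibition at the highest dose.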

Another series deals with RPMI-8226. In words: CellTiterGlo cell viability assay, RPMI-8226. The class given is cell-based, Human. The essentials: as §1
Another series has as its system CCRF-CEM. The experiment in a line: CellTiterGlo cell viability assay, CCRF-CEM. The following applies: Homo sapiens, 72 h; for EC50: absolute EC50, numeric values, read-out: Ab EC50; for inhibition at 198 µM: percentage inhibition at the highest concentration tested, read-out: Top Inh. The series is classed as cell-based. An outline of the steps: as §1
The next series has as its system HepG2. In words: CellTiterGlo cell viability assay, HepG2. The series is classed as cell-based. The essentials:
as §1

The next series has as its system HT29. The experiment in a line: CellTiterGlo cell viability assay, HT29. The series is classed as cell-based. To be noted: Homo sapiens, HT29, 72 h; for EC50: absolute EC50, numeric values, read-out: Ab EC50; for inhibition at 198 µM: percentage inhibition at the highest concentration tested, read-out: Top Inhibit. An outline of the steps:
as §1

In the next series the test system is MCF-7. In words: CellTiterGlo cell viability assay, MCF-7. The class given is cell-based. To be noted: Homo sapiens, MCF-7, 72 h; for EC50: absolute EC50, numeric values, read-out: Ab EC50; for inhibition at 198 µM: percentage inhibition at the highest concentration tested, read-out: Top Inhibit. An outline of the steps:
as §1

The next series in a line: in vitro. The following applies: human, pH 7.3; for half-life: hepatocytes.
The subject of a further series is RL. The experiment in a line: CellTiterGlo cell viability assay, RL. The series is classed as cell-based. The following applies: Homo sapiens, 72 h; for EC50: absolute EC50, numeric values, read-out: Ab EC50; for inhibition at 198 µM: percentage inhibition at the highest concentration tested, read-out: Top Inh. The essentials:
as §1

Another series has as its system HL-60. The experiment in a line: CellTiterGlo cell viability assay, HL-60. The class given is cell-based. To be noted: Homo sapiens, HL-60, 72 h; for EC50: absolute EC50, numeric values, read-out: Ab EC50; for inhibition at 198 µM: percentage inhibition at the highest concentration tested, read-out: Top Inh. An outline of the steps: as §1
The subject of the next series is K562. In words: CellTiterGlo cell viability assay, K562. The series is classed as cell-based. The following applies: Homo sapiens, K562, 72 h; for inhibition at 198 µM: percentage inhibition at the highest concentration tested, read-out: Top Inh; for EC50: absolute EC50, numeric values, read-out: Ab EC50. The essentials:
as §1

Another series deals with MOLT-4. The experiment in a line: CellTiterGlo cell viability assay, MOLT-4. To be noted: Homo sapiens, MOLT-4, 72 h; for inhibition at 198 µM: percentage inhibition at the highest concentration tested, read-out: Top Inh; for EC50: absolute EC50, numeric values, read-out: Ab EC50. The class given is cell-based. The essentials:
as §1

Setting [1] is: Homo sapiens, RPMI-8226, 72 h, absolute EC50, numeric values, read-out: Ab EC50.
Setting [2] is: Homo sapiens, RPMI-8226, 72 h, percentage inhibition at the highest concentration tested, read-out: Top Inh.
[3] abbreviates: Homo sapiens, HepG2, 72 h, absolute EC50, numeric values, read-out: Ab EC50.
The mark [4] stands for this setting: Homo sapiens, HepG2, 72 h, percentage inhibition at the highest concentration tested, read-out: Top Inhibit.

For `C[C@H](NP(=O)(Oc1cccc2ccccc12)OP(=O)(O)OC[C@H]1O[C@@H](n2cc(F)c(=O)[nH]c2=O)CC1O)C(=O)OCc1ccccc1` (stereo partly drawn) [Example 4, 5-Fluoro-2′-deoxyuridine-5′-O-[1-naphthyl-(benzoxy-L-alaninyl)] Diphosphate Triethylammonium Salt], the EC50 (usually the concentration giving half of the maximal effect) with Mia-Pa-Ca-2 was 110 nM; in the series on OVCAR 3 (OVCAR 3, 72 h), 2810 nM; with RPMI-8226 (setting [1]), 50 nM; in the series on CCRF-CEM, 30 nM; in the series with HepG2 (setting [3]), greater than 198000 nM; with HT29 (HT-29, 72 h) it was 250 nM. For the same compound, the EC50 in the series with MCF-7 (MCF7, 72 h) amounted to 15800 nM. The inhibition at 198 µM is 67% in the series with Mia-Pa-Ca-2; 67.5% in the series on OVCAR 3 (OVCAR-3, 72 h); 95% in the series with RPMI-8226 (setting [2]); 97.1% with CCRF-CEM; 48% in the series with HepG2 (setting [4]); 77% with HT29 (HT-29, 72 h). The inhibition at 198 µM in the series on MCF-7 (MCF7, 72 h) amounted to 66%. Further, the half-life (as a rule, the time in which the quantity being followed falls by half) in the series “in vitro” turned out to be 15 min.
As for `C[C@H](NP(=O)(Oc1cccc2ccccc12)OP(=O)(O)OC[C@H]1O[C@@H](n2c(Cl)nc3c(N)ncnc32)[C@@H](O)C1O)C(=O)OCc1ccccc1` (stereo partly drawn) [Example 5, 8-Chloroadenosine-5′-O-[1-naphthyl-(benzoxy-L-alaninyl)]diphosphate Triethylammonium Salt], the EC50 in the series on Mia-Pa-Ca-2 was 430 nM; in the series on HT29 (HT-29, 72 h), 1410 nM; in the series on MCF-7 (MCF7, 72 h), 1690 nM. Besides, the inhibition at 198 µM in the series with Mia-Pa-Ca-2 is 87.6%; in the series with HT29 (HT-29, 72 h), 76.5%; with MCF-7 (MCF7, 72 h), 88%. In “in vitro”, this compound gave a half-life of 18 min.
Turning to `C[C@H](NP(=O)(Oc1ccccc1)OP(=O)(O)OC[C@@H]1C[C@H](OP(=O)(O)OP(=O)(N[C@@H](C)C(=O)OCc2ccccc2)Oc2ccccc2)[C@H](n2cnc3c(N)ncnc32)O1)C(=O)OCc1ccccc1` (stereo partly drawn) [Example 7, 3′-Deoxyadenosine-5′,2′-Bis-O-[phenyl(benzoxy-L-alaninyl)]-diphosphate Triethylammonium Salt], the EC50 is 3320 nM with Mia-Pa-Ca-2; 11100 nM with RL; 1600 nM in the series with RPMI-8226 (setting [1]); 6970 nM with HL-60; 9160 nM in the series with K562; 25300 nM in the series on MOLT-4. In addition, the EC50 in the series on HT29 (HT-29, 72 h) was found to be 7790 nM. For the same compound, the inhibition at 198 µM was determined as 98.9% in the series with Mia-Pa-Ca-2; 93% in the series on RL; 98% in the series on RPMI-8226 (setting [2]); 100% in the series on HL-60; 94% in the series on K562; 90% in the series on MOLT-4. For the same compound, the inhibition at 198 µM in the series on HT29 (HT-29, 72 h) turned out to be 79%. In the series “in vitro”, this compound registered a half-life of 27 min.
Regarding `C[C@H](NP(=O)(Oc1ccccc1)OP(=O)(O)OC[C@H]1O[C@@H](n2ccc(N)nc2=O)C(F)(F)C1O)C(=O)OCc1ccccc1` (stereo partly drawn) [Example 8, 2′-Deoxy-2′,2′-difluoro-D-cytidine-5′-O-[phenyl(benzoxy-L-alaninyl)] Diphosphate Triethylammonium Salt], the EC50 in the series with Mia-Pa-Ca-2 is 70 nM; with RL it was 200 nM; with OVCAR 3 (OVCAR 3, 72 h), greater than 198000 nM; in the series with HL-60 it was 80 nM; in the series with CCRF-CEM it was 40 nM; in the series on K562 it was greater than 198000 nM. Further, the EC50 is 9 nM in the series with MOLT-4; 83100 nM in the series with HepG2 (setting [3]); 480 nM in the series on HT29 (HT-29, 72 h); 70 nM in the series with MCF-7 (MCF7, 72 h). The inhibition at 198 µM with Mia-Pa-Ca-2 is 79%; in the series with RL, 66.5%; in the series on OVCAR 3 (OVCAR-3, 72 h), 48.5%; in the series on HL-60, 98%; with CCRF-CEM, 99.9%; in the series on K562, 29%. Moreover, the inhibition at 198 µM in the series on MOLT-4 worked out at 84%; in the series on HepG2 (setting [4]), 52%; with HT29 (HT-29, 72 h), 62%; with MCF-7 (MCF7, 72 h) it was 52%. In the series “in vitro”, the half-life worked out at 27 min.
Regarding `O=c1[nH]c(=O)n([C@H]2C[C@H](O)[C@@H](CO)O2)cc1F` [FUDR, 5-fluoro-2′-deoxyuridine, reference compound], the EC50 in the series with Mia-Pa-Ca-2 stood at 350 nM; in the series with OVCAR 3 (OVCAR 3, 72 h), 2320 nM; in the series with RPMI-8226 (Homo sapiens; RPMI-8226, 72 h, absolute EC50, numeric values; read-out: Ab EC50) it was 110 nM; in the series with CCRF-CEM, 40 nM; with HepG2 (Homo sapiens; HepG2, 72 h, absolute EC50, numeric values; read-out: Ab EC50), 84000 nM; in the series with HT29 (HT-29) it was 220 nM. Besides, the EC50 in the series on MCF-7 (MCF7) turned out to be 7230 nM. Besides, the inhibition at 198 µM in the series with Mia-Pa-Ca-2 is 90%; in the series with OVCAR 3 (OVCAR 3, 72 h), 66%; with RPMI-8226 (Homo sapiens; RPMI-8226, 72 h, percentage inhibition at the highest concentration tested; read-out: Top Inh) it was 99%; in the series with CCRF-CEM, 91.9%; with HepG2 (Homo sapiens; HepG2, 72 h, percentage inhibition at the highest concentration tested; read-out: Top Inhibit), 61%; in the series with HT29 (HT-29), 82%. In addition, in the series on MCF-7 (MCF7), the inhibition at 198 µM worked out at 73%. The compound further showed a half-life at 1 μM in the series “in vitro” (pooled cryopreserved hepatocytes) of 69 min.
